From PMC3623961, “A Comparative Study of Interaction of Tetracycline with Several Proteins Using Time Resolved Anisotropy, Phosphorescence, Docking and FRET” (PLoS ONE, 2013) come the findings set out here.

Where a name gives a salt, the structure may show the parent alone.

Test [1] addresses T1, Human serum albumin (HSA) (Homo sapiens, UniProt P02768).
T1 construct: gene ALB; mature serum albumin, 585 amino acids, 17 disulfides, single Trp214; purchased from Sigma-Aldrich
Put plainly: fluorescence enhancement of bound tetracycline, modified Benesi-Hildebrand. To be noted: read-out: Binding Constant (M^-1) (converted). The source says:
fluorescence enhancement of bound tetracycline, modified Benesi-Hildebrand on Human serum albumin (HSA)

Test [2] addresses T2, Bovine serum albumin (BSA) (Bos taurus, UniProt P02769).
T2 construct: gene ALB; mature serum albumin, 17 disulfides, Trp134 and Trp213; purchased from Sigma-Aldrich
The description is as above. To be noted: read-out: Binding Constant (M^-1) (converted). The source says:
fluorescence enhancement of bound tetracycline, modified Benesi-Hildebrand on Bovine serum albumin (BSA)

T2 sequence (P02769 25-607): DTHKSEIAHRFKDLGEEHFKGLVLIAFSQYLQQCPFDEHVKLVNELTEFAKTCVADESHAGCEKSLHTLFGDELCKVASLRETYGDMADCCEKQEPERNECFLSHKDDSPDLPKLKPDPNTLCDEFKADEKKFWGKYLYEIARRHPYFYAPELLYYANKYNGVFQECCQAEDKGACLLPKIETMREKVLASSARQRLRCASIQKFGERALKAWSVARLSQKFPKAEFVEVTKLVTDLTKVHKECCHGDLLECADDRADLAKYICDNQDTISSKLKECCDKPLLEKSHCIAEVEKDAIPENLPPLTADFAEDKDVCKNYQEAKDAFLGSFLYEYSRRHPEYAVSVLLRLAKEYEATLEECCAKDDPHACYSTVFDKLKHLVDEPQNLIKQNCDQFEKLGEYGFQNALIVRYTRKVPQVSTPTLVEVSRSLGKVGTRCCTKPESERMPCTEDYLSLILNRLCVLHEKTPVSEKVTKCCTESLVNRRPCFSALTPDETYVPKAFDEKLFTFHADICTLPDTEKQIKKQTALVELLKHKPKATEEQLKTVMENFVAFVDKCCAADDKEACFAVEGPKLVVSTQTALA
T1 sequence (P02768 25-609): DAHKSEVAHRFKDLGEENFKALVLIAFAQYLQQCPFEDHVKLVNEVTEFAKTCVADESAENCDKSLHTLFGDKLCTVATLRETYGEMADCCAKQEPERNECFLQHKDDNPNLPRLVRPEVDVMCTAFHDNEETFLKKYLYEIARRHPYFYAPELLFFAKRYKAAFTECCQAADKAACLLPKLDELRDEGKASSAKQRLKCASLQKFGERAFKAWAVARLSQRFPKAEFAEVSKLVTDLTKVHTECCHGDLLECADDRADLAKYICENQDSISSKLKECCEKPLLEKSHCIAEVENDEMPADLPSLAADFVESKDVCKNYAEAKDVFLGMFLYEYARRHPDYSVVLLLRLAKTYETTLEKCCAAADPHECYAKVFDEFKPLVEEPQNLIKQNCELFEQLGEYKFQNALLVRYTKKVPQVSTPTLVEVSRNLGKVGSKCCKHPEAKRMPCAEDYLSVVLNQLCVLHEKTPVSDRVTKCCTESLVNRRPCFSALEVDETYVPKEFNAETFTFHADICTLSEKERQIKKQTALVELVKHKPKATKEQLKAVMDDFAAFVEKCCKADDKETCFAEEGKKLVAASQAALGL

As for `CN(C)[C@@H]1C(O)=C(C(N)=O)C(=O)[C@@]2(O)C(O)=C3C(=O)c4c(O)cccc4[C@@](C)(O)[C@H]3C[C@@H]12` [Tetracycline hydrochloride], the Kd is 31.8 µM in test [1] and 21.2 µM in test [2].
